In ChEMBL document CHEMBL1201862, “PubChem BioAssay data set” (2004):
Active and inactive are the calls of the source.

Assays:
[1] = target: T1, Heat shock factor protein 1 (Mus musculus, UniProt P38532); test: inhibition of MG132-induced HSE-luciferase signal, confirmation, cell-based, NIH3T3, luminescence, dose retest (AID 2382); type: functional;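 note: NIH3T3 fibroblasts with HSF1-driven luciferase reporter stressed by proteasome inhibitor MG132; luminescence from HSF1-driven luciferase expression after 8 hours of MG132 stress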
T1 sequence (P38532 whole entry): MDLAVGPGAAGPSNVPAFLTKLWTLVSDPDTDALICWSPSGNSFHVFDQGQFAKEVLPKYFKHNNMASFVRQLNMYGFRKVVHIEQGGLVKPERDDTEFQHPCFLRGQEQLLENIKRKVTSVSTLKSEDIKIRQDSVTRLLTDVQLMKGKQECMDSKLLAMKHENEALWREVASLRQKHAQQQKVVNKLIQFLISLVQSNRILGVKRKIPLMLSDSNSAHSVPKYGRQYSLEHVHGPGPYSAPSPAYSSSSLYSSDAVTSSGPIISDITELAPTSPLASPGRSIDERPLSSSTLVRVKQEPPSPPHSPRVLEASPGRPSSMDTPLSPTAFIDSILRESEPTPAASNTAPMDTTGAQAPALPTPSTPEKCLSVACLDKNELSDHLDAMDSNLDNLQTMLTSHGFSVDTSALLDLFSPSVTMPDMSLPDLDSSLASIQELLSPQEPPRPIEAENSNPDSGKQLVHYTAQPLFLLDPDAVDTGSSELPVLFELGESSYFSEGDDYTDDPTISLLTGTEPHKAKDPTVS

[2] = target: T2, Microphthalmia-associated transcription factor (Homo sapiens, UniProt O75030); test: TRPM1 promoter luciferase signal decrease, dose response, MITF inhibitor project, cell-based, SK-MEL-5, cherry-picked, set 3 (AID 493073); type: functional
T2 sequence (O75030 whole entry): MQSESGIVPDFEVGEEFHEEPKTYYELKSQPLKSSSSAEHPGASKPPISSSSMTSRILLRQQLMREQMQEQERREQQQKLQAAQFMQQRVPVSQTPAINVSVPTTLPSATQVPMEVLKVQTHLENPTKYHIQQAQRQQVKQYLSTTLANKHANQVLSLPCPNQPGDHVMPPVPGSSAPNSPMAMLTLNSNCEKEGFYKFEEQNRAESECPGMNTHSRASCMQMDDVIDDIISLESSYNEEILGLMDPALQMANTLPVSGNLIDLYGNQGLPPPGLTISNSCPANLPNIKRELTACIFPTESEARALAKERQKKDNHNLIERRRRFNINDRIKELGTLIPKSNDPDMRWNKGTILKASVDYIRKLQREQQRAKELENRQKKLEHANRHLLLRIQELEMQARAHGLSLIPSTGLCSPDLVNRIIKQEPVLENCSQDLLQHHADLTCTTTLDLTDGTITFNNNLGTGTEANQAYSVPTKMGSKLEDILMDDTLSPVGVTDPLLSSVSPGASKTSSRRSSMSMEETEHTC

[3] = Luminescence Cell-Based Dose Confirmation HTS to Identify Activators of 5'UTR Stem-Loop Driven Alpha-Synuclein mRNA Translation in H4 Neuroglioblastoma Cells. [Related pubchem assays: 1829 (Project Summary), 1814 (Primary HTS)]; type: functional
[4] = Luminescence Cell-Based Dose Response HTS to Identify Activators of Luciferase Translation or Activity in H4 […] Cells. [Related pubchem assays: 1829 (Project Summary), 1814 (Primary HTS)]; type: functional
[5] = system: H4; test: Luminescence Cell-Based Dose Response HTS to Identify Activators of 5'UTR Stem-Loop Driven Prion Protein mRNA Translation in H4 Neuroglioblastoma Cells. [Related pubchem assays: 1829 (Project Summary), 1814 (Primary HTS)]; type: functional; conditions: Homo sapiens
[6] = target: Prothrombin (Homo sapiens, UniProt P00734); test: Thrombin 1536 HTS Dose Response Confirmation. [Related pubchem assays: 1046 (Thrombin 1536 HTS; hits were confirmed in this assay)]; type: functional
[7] = target: T3, Leucine aminopeptidase (Plasmodium falciparum 3D7, UniProt Q8IL11); test: P. falciparum M17LAP inhibitors, primary screen, biochemical, fluorogenic H-Leu-NHMec substrate, 1536-well (AID 1619); type: functional
T3 sequence (Q8IL11 whole entry): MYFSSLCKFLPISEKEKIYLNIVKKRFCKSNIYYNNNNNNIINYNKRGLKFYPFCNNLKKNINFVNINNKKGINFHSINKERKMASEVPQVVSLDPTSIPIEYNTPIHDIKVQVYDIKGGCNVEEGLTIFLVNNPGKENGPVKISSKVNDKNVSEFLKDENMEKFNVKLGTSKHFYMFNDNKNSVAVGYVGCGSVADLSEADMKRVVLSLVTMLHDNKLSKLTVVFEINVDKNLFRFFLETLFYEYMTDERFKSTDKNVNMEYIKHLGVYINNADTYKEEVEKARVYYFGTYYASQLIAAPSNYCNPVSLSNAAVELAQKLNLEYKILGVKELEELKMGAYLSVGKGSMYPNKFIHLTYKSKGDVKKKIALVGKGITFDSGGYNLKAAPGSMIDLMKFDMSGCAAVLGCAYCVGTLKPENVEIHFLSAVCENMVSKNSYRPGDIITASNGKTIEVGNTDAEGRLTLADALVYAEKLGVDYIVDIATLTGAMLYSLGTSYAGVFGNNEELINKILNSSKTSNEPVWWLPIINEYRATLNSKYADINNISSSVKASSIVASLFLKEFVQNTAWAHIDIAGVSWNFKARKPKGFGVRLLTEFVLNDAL

[8] = cells; type: functional, cell-based
[9] = target: T4, Trace amine-associated receptor 1 (Homo sapiens, UniProt Q96RJ0); test: Fluorescence-based cell-based high throughput dose response assay to identify agonists of the human trace amine associated receptor 1 (TAAR1).; type: functional
T4 sequence (Q96RJ0 whole entry): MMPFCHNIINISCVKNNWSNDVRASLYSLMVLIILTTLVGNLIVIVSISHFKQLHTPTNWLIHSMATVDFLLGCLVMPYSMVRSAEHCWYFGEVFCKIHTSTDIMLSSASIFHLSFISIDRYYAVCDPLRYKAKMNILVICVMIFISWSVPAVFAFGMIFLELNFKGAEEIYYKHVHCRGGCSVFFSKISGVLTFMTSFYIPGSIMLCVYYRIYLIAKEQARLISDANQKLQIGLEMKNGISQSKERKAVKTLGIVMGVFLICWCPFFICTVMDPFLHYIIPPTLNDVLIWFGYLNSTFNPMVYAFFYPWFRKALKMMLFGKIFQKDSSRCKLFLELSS

[10] = target: T4, Trace amine-associated receptor 1; test: Counterscreen for agonists of the human trace amine associated receptor 1 (hTAAR1): Fluorescence-based cell-based high throughput dose response assay to identify hTAAR1 agonist that also desensitize TAAR1 receptor response.; type: functional
[11] = cells; type: functional, cell-based; remark: listed apart in the source
[12] = target: Luciferin 4-monooxygenase (Photinus pyralis, UniProt P08659); test: firefly luciferase enzyme inhibitors, dose response, biochemical, luminescence (AID 1891)
Luciferin 4-monooxygenase, sequence (P08659 whole entry): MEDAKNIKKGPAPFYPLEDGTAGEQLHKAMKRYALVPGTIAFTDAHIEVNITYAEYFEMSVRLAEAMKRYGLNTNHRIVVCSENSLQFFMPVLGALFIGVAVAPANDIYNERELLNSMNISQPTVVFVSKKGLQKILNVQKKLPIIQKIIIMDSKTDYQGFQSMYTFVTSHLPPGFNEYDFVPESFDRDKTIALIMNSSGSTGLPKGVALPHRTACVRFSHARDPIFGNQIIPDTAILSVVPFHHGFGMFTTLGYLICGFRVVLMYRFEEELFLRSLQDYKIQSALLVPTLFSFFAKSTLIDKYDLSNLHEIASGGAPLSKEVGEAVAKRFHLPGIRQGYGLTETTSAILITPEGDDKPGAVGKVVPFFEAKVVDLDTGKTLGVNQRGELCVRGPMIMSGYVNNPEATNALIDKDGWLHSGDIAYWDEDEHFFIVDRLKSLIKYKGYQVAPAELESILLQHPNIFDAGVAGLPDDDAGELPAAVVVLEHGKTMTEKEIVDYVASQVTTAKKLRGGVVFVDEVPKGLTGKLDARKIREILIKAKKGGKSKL

[13] = Luminescence Cell-Based Dose Confirmation HTS to Identify Inhibitors of Platelet Dense Granule Release. [Related pubchem assays: 1663 (Primary HTS), 1678 (Summary of Project)]; type: functional
[14] = system: P388/ADR; test: cells; type: functional; conditions: Mus musculus
[15] = system: P388; test: cells; type: functional; conditions: Mus musculus
[16] = system: SN12K1; test: cells; type: functional; conditions: Homo sapiens
[17] = P. falciparum Dd2 growth inhibitors, dose response, SYBR Green, cherry-picked samples (AID 1159567); type: functional, cell-based

SMILES: NCCN1C(=O)S/C(=C\c2ccc3c(c2)OCO3)C1=O
- EC50 [1]: 1.48 µM (active)
- AC50 [2]: 22.3 µM (active)

SMILES: O=C(c1ccco1)n1nc(-c2ccccc2)nc1SCc1ccccc1
- EC50 [3]: > 120 µM (not active)
- EC50 [4]: 40.1 µM (active)
- EC50 [5]: 19.6 µM (active)
- IC50 [6]: 0.695 µM (active)

SMILES: CCOc1ccccc1C(=O)Nc1nnc(SCC(=O)N2CCOCC2)s1
- IC50 [6]: > 50 µM (not active)

SMILES: CCN(CC)S(=O)(=O)N1CCC(C(=O)NCC2COc3ccccc3O2)CC1 (stereo not drawn)
- IC50 [7]: 11.3 µM (active)

SMILES: Cc1ccc(NC(=O)CSCc2nc(O)c3nnn(Cc4ccc(F)cc4)c3n2)c(C)c1
- IC50 [7]: 2.06 µM (active)

SMILES: CCNC1=NN=C(c2cc(C)n(CCc3ccccc3)c2C)CS1
- IC50 [8]: > 29.9 µM (inactive)
- EC50 [9]: 0.373 µM (active)
- IC50 [10]: 1.06 µM (active)
- EC50 [11]: > 29.9 µM (inactive)

SMILES: CC(C)(C)NC(=O)c1cc([N+](=O)[O-])ccc1N1CCCCC1
- IC50 [6]: > 50 µM (not active)

SMILES: Clc1ccc(-c2nc3cc[nH]cc-3n2)cc1
- EC50 [12]: 1 µM (active)
- EC50 [13]: 10 µM (active)
- IC50 [8]: > 29.9 µM (inactive)
- EC50 [9]: > 29.9 µM (inactive)
- IC50 [10]: > 29.9 µM (inactive)
- EC50 [11]: > 29.9 µM (inactive)

SMILES: CCC(=O)NC(=S)Nc1cccc(NC(=O)c2ccccc2)c1
- IC50 [6]: > 50 µM (not active)

SMILES: CC[C@@H](C)[C@H]([C@H](CC(=O)N1CCC[C@@H]1[C@@H](OC)[C@H](C)C(=O)N[C@H](Cc1ccccc1)c1nccs1)OC)N(C)C(=O)[C@H](NC(=O)[C@@H](C(C)C)N(C)C)C(C)C
- GI50 [14]: 0.000425 µM (active)
- GI50 [15]: 0.000425 µM (active)

SMILES: CSc1nc2c(ncn2C2OC(CO)C(O)C(O)C2O)c(=O)n1C (stereo not drawn)
- GI50 [14]: > 10 µM (inactive)
- GI50 [16]: > 100 µM (inactive)
- GI50 [15]: > 100 µM (inactive)

SMILES: O=NN1C(c2ccccc2)C2CCCC(C2=O)C1c1ccccc1 (stereo not drawn)
- GI50 [14]: 22.5 µM (inactive)
- GI50 [16]: 26.5 µM (inactive)
- GI50 [15]: 36.3 µM (inactive)

SMILES: O=[N+]([O-])c1ccc(/C=C/c2ccc(/N=N/c3ccc(/C=C/c4ccc([N+](=O)[O-])cc4S(=O)(=O)O)c(S(=O)(=O)O)c3)cc2S(=O)(=O)O)c(S(=O)(=O)O)c1
- GI50 [14]: > 100 µM (inactive)
- GI50 [16]: > 100 µM (inactive)
- GI50 [15]: > 100 µM (inactive)

SMILES: COC1/C=C/O[C@@]2(C)Oc3c(C)c(O)c4c(O)c(cc(O)c4c3C2=O)NC(=O)/C(C)=C\C=C\[C@H](C)C(O)[C@@H](C)[C@@H](O)[C@@H](C)[C@H](OC(C)=O)[C@@H]1C (stereo partly drawn)
- GI50 [14]: 10.9 µM (inactive)
- GI50 [16]: 15.2 µM (inactive)
- GI50 [15]: 5.41 µM (inactive)

SMILES: COC(=O)[C@@]12C[C@@H](CC(=O)NCCc3ccccc3OC)C(=O)N(Cc3ccc4c(c3)OCO4)C1=CCC(C)(C)C2
- IC50 [8]: > 29.9 µM (inactive)
- EC50 [9]: 2.4 µM (active)
- IC50 [10]: 6.93 µM (active)
- EC50 [11]: > 29.9 µM (inactive)

SMILES: O=C(N[C@H](C(=O)N1CCC[C@H]1C(=O)NCCc1ccccc1Cl)C1CCCCC1)c1ccccc1
- IC50 [8]: > 29.9 µM (inactive)
- EC50 [9]: 5.2 µM (active)
- IC50 [10]: 5.04 µM (active)
- EC50 [11]: > 29.9 µM (inactive)

SMILES: CCOC(=O)N[C@H](C(=O)N1CCC[C@H]1C(=O)NCCc1ccccc1Cl)C1CCCCC1
- IC50 [8]: > 29.9 µM (inactive)
- EC50 [9]: 1.91 µM (active)
- IC50 [10]: 2.33 µM (active)
- EC50 [11]: > 29.9 µM (inactive)

SMILES: Oc1nncc(N/N=C/c2ccccc2)c1Cl
- IC50 [8]: > 29.9 µM (inactive)
- EC50 [9]: 0.29 µM (active)
- IC50 [10]: 0.981 µM (active)
- EC50 [11]: > 29.9 µM (inactive)

SMILES: CCS(=O)(=O)N1CC(=O)N2[C@H](CO)[C@@H](c3ccc(-c4ccccc4F)cc3)[C@@H]2C1
- AC50 [17]: 13.6 µM (active)

SMILES: COc1ccc(CN2C[C@@H](C)[C@@H](OC)CN(C)C(=O)c3cc(NC(=O)c4nc5ccccc5s4)ccc3OC[C@H]2C)cc1
- AC50 [17]: 6.65 µM (active)

SMILES: COc1ccc2c3c([nH]c2c1)[C@H](CO)N(Cc1ccccc1)CC31CCN(CC2CC2)CC1
- AC50 [17]: 2.62 µM (active)

SMILES: CC1=C(C)C(=O)C(CCCCC#CCCCC#CCO)=C(C)C1=O [DOCEBENONE]
- IC50 [7]: 53.4 µM (active)

SMILES: CCCCCCCCCCCCCCCCCCOCC(COP(=O)([O-])OCC[N+](C)(C)C)OC (stereo not drawn) [EDELFOSINE]
- GI50 [14]: 4.07 µM (inactive)
- GI50 [16]: 11.2 µM (inactive)
- GI50 [15]: 2.65 µM (inactive)
